Source: US20200345721A1, “Device for Deterring Abuse of Drugs” (EIGHTY EIGHT PHARMA, INC., priority 2019, published 2020)
Where a name gives a salt, the structure may show the parent alone. Read-outs that look alike come from different tables or passages of the source.

Columns and labels:
[1] = Solubility of naltrexone in ethanol/water; type: physicochemical
Method: A solution of naltrexone in 60% Ethanol/40% water at a concentration of 19 mg/ml was achieved without precipitation.
To determine a formulation which will deposit 3.6-9.6 mg of Naltrexone onto small IR tablets within a specified period of time, the ratio of ethanol to water was adjusted to increase solubility of Naltrexone.

[2] = Naltrexone recovered from IR and ER tablets, 23 mg/mL solutions (Example 4); details: 23 mg/ml ethanol/water solution, lower proportion of ethanol
Method: To compare formulations of Naltrexone and Naltrexone HCl which will deposit 3.6-9.6 mg of Naltrexone onto small IR tablets, small extended release (“ER”) tablets and large ER tablets, Naltrexone (23 mg/ml) and Naltrexone HCl (23 mg/ml) solutions were used. Six (6) small IR tablets (Homeopathy Blank 5 Grain, Lactose, Lot #: 07090710H3, Exp. 08/23), six (6) small ER Tablets (Mucus Relief Guaifenesin Extended-Release Tablets, 600 mg, Lot #: F07210, Exp. 04/20), and three (3) large ER tablets (Mucus Relief Guaifenesin Extended-Release Tablets, 1200 mg, Lot #: F08474, Exp. 05/20) were tested. Tablets were placed in test tubes or kept in their blister packaging and spiked with a 23 mg/mL spiking solution containing either Naltrexone Base or Naltrexone HCl. Small tablets (IR and ER) were divided into two groups of 3 and coated with a solution prepared with either Naltrexone base (23 mg/ml) or Naltrexone HCl (23 mg/ml). Large ER tablets were spiked with Naltrexone base solution only while remaining in their original blister packaging. Each tablet remained in solution for a period of 2, 6 or 10 minutes before removal and testing form Naltrexone. The large ER tablets spiked with Naltrexone NCl were not completed due to time limitations

[3] = system: animals; details: cited from earlier work
[4] = Naltrexone HCl solubility, HPLC analysis; type: physicochemical; details: for solubility at 2 h / solubility at 1 h / solubility: thermodynamic from solid; for solubility at 1 h: sample 50 mg/mL
Method: To determine the solubility of Naltrexone HCl in solutions of 100% water or 60%/40% Ethanol/water, solutions of Naltrexone HCl were prepared at 50 mg/mL and 100 mg/mL in 100% water or 60%/40% ethanol/water for a total of 4 solutions. Solutions were vortex mixed, placed on a mechanical shaker and evaluated every 30 minutes for complete dissolution. Once fully dissolved, each solution was prepared for HPLC by diluting to 2 mg/mL in methanol and 0.1M phosphoric acid and analyzed on an HPLC.
The 50 mg/mL samples were fully dissolved into solution following 1 hour on the mechanical shaker with periodic vortex mixing. The 100 mg/mL solution prepared in the ethanol/water mixture was dissolved after a total of 2 hours shaking with periodic vertex mixing. The 100 mg/mL solution in 100% water was also sonicated. HPLC results are included in Table 3.

[5] = system: pharmacologic effects of 25 mg of intravenously administered heroin; details: cited from earlier work
[6] = system: humans; details: 800 mg daily for up to one week, human subjects; cited from earlier work
[7] = system: rat; details: cited from earlier work
[8] = system: guinea pig; details: cited from earlier work

| Structure (SMILES) | concentration achieved without precipitation ([1]; 60% Ethanol/40% water) | final concentration of solution, titrated with water until precipitates formed ([1]; 75:25 ethanol to water) | stability of the solution [2] | cause of mortalities ([3]; high-dose administration, animals) | time on mechanical shaker until fully dissolved ([4]; 50 mg/mL samples, periodic vortex mixing) | total shaking time until dissolved ([4]; 100 mg/mL in ethanol/water mixture) | solubility at 2 h ([4]; 60%/40% ethanol/water, aqueous with cosolvent or surfactant or cyclodextrin, 60%/40% ethanol/water, read-out: solubility (soluble up to)) | solubility at 1 h ([4]; 60:40 ethanol:water, aqueous with cosolvent or surfactant or cyclodextrin, 60:40 Ethanol:water, HPLC, read-out: Solubilized Concentration) | solubility at 2 h ([4]; 60:40 ethanol:water, aqueous with cosolvent or surfactant or cyclodextrin, sample 100 mg/mL, 60:40 Ethanol:water, HPLC, read-out: Solubilized Concentration) | solubility ([4]; 100% water, water, 100% water, read-out: solubility (soluble up to)) | solubility at 1 h ([4]; 100% water, water, 100% water, HPLC, read-out: Solubilized Concentration) | solubility ([4]; 100% water, water, sample 100 mg/mL, 100% water, HPLC, read-out: Solubilized Concentration) | duration of blockade of pharmacologic effects of heroin ([5]; 50 mg naltrexone hydrochloride vs 25 mg intravenous heroin) | duration of blockade ([5]; doubling the dose of naltrexone hydrochloride) | duration of blockade ([5]; tripling the dose of naltrexone hydrochloride) | evidence of toxicity [6] | oral LD50 [7] | oral LD50 [8] | signs produced by high doses ([3]; high doses, generally >1,000 mg/kg) |
| --- | --- | --- | --- | --- | --- | --- | --- | --- | --- | --- | --- | --- | --- | --- | --- | --- | --- | --- | --- |
| O=C1CC[C@@]2(O)[C@H]3Cc4ccc(O)c5c4[C@@]2(CCN3CC2CC2)[C@H]1O5 [Naltrexone Base, naltrexone] | 19000 µg/mL | 37.5 mg/mL | comes out of solution over time | tonic-clonic convulsions and/or respiratory failure |  |  |  |  |  |  |  |  |  |  |  |  |  |  |  |
| O=C1CC[C@@]2(O)[C@H]3Cc4ccc(O)c5c4[C@@]2(CCN3CC2CC2)[C@H]1O5 [Naltrexone HCl, naltrexone hydrochloride] |  |  |  |  | 1 h | 2 h | ≥ 100 mg/mL | 48.6 mg/mL | 96.1 mg/mL | ≥ 100 mg/mL | 49 mg/mL | 96.9 mg/mL | ≤ 24 hours | 48 h | about 72 hours | no evidence of toxicity | 1,450 mg/kg | 1,490 mg/kg | salivation, depression/reduced activity, tremors, and convulsions |
